Measurements from the NIST ThermoML archive (doi:10.1021/acs.jced.8b00153).
“And” between values parts separate entries of the source, which are not always exact repeats. Equal values may be shown once.

Conditions: for surface tension liquid-gas: Drop volume; for viscosity / speed of sound / mass density / vapor or sublimation pressure: Liquid; for viscosity: Capillary tube (Ostwald / Ubbelohde) method; for speed of sound: Frequency=3 MHz, Single path-length method; for mass density: Vibrating tube method; for vapor or sublimation pressure: Ebulliometric method (Recirculating still)

CCc1ccco1 [2-ethylfuran]
Conditions	surface tension liquid-gas [mN/m]	vapor or sublimation pressure [kPa]
278.15 K	27.22	–
280.65 K	26.91	–
283.15 K	26.59	–
285.65 K	26.31	–
288.15 K	26.01	–
289.96 K	–	4.96
290.65 K	25.62	–
292.18 K	–	5.57
293.15 K	25.32	–
293.77 K	–	6.05
295.65 K	25.09	–

Conditions	mass density	speed of sound [m/s]	viscosity [mPa·s]
278.15 K, 100 kPa	920.97 kg/m3	1281	0.6327
280.65 K, 100 kPa	918.26 kg/m3	1270.8	0.6126
283.15 K, 100 kPa	915.55 kg/m3 and 915.5 kg/m3	1259.4	0.5934
283.15 K, 2000 kPa	917.27 kg/m3	–	–
283.15 K, 5000 kPa	919.69 kg/m3	–	–
283.15 K, 7000 kPa	921.41 kg/m3	–	–
283.15 K, 10000 kPa	923.87 kg/m3	–	–
283.15 K, 15000 kPa	927.84 kg/m3	–	–
283.15 K, 20000 kPa	931.59 kg/m3	–	–
283.15 K, 25000 kPa	935.19 kg/m3	–	–
283.15 K, 30000 kPa	938.66 kg/m3	–	–
283.15 K, 35000 kPa	942.04 kg/m3	–	–
283.15 K, 40000 kPa	945.33 kg/m3	–	–
283.15 K, 45000 kPa	948.5 kg/m3	–	–
283.15 K, 50000 kPa	951.53 kg/m3	–	–
283.15 K, 55000 kPa	954.61 kg/m3	–	–
283.15 K, 60000 kPa	957.6 kg/m3	–	–
283.15 K, 65000 kPa	960.38 kg/m3	–	–
285.65 K, 100 kPa	912.83 kg/m3	1248.7	0.5733
288.15 K, 100 kPa	910.1 kg/m3 and 910.08 kg/m3	1238.5	0.556
288.15 K, 2000 kPa	911.89 kg/m3	–	–
288.15 K, 5000 kPa	914.37 kg/m3	–	–
288.15 K, 7000 kPa	916.19 kg/m3	–	–
288.15 K, 10000 kPa	918.68 kg/m3	–	–
288.15 K, 15000 kPa	922.7 kg/m3	–	–
288.15 K, 20000 kPa	926.63 kg/m3	–	–
288.15 K, 25000 kPa	930.32 kg/m3	–	–
288.15 K, 30000 kPa	933.89 kg/m3	–	–
288.15 K, 35000 kPa	937.37 kg/m3	–	–
288.15 K, 40000 kPa	940.66 kg/m3	–	–
288.15 K, 45000 kPa	943.92 kg/m3	–	–
288.15 K, 50000 kPa	947.13 kg/m3	–	–
288.15 K, 55000 kPa	950.18 kg/m3	–	–
288.15 K, 60000 kPa	953.28 kg/m3	–	–
288.15 K, 65000 kPa	956.1 kg/m3	–	–
290.65 K, 100 kPa	907.37 kg/m3	1227.6	0.5394
293.15 K, 100 kPa	904.64 kg/m3 and 904.65 kg/m3	1216.7	0.5214
293.15 K, 2000 kPa	906.44 kg/m3	–	–
293.15 K, 5000 kPa	909.05 kg/m3	–	–
293.15 K, 7000 kPa	910.93 kg/m3	–	–
293.15 K, 10000 kPa	913.5 kg/m3	–	–
293.15 K, 15000 kPa	917.66 kg/m3	–	–
293.15 K, 20000 kPa	921.69 kg/m3	–	–
293.15 K, 25000 kPa	925.54 kg/m3	–	–
293.15 K, 30000 kPa	929.07 kg/m3	–	–
293.15 K, 35000 kPa	932.7 kg/m3	–	–
293.15 K, 40000 kPa	936.06 kg/m3	–	–
293.15 K, 45000 kPa	939.48 kg/m3	–	–
293.15 K, 50000 kPa	942.66 kg/m3	–	–
293.15 K, 55000 kPa	945.78 kg/m3	–	–
293.15 K, 60000 kPa	948.91 kg/m3	–	–
293.15 K, 65000 kPa	951.86 kg/m3	–	–
295.65 K, 100 kPa	–	1205.2	0.5061
